Results taken from patent US20120237614A1, “PEPTIDE ABLE TO DISRUPT THE PROTEIN COMPLEX BETWEEN THE HIS273 MUTADED P53 PROTEIN AND THE ONCOSUPPRESSIVE P73 PROTEIN IN TUMOR CELLS AND THERAPEUTIC USES THEREOF” (priority 2009, published 2012).

How the values were obtained:
[1] = tested on: tumour cell lines containing His-175 or His-273 p53 mutation; experiment: Summary of activity by p53 mutation type; type: cell-based; conditions: FIG. 6 summary
Source text: SIMP1M: FQQSSTARSATW (SEQ ID NO:16) (MW: 1369, PI: 9.75) peptide is a mutated version of SIMP1 peptide wherein K138 residue has been replaced by Arginine.
FIG. 6 that SIMP peptides and by-products thereof displace protein complexes involving mutated protein p53 and p73.

GST-p53 His175 = GST-p53 His175 (Homo sapiens, UniProt P04637, R175H); experiment: Dot immunobinding test with purified GST-p53 fusion proteins; type: binding; conditions: 20 μg GST fusion purified proteins
Method: (§1) (A) Total extracts deriving from SKBR3, (His-175) HT29, (His-273) and H1299 (p53 free) tumour cells have been incubated (1 mg) on SIMP1 and SIMPIKO peptide labelled nitrocellulose membrane and Dot Blot analysed. In (B) the membranes have been incubated with 20 μg of wild type WT GST-p53 purified protein or GST-p53 His-175, GST-p53-His-175, 74-298 or GST alone. In both experiments dots have been detected by labelling the membranes with anti-p53 (DO1) antibody
(§2) Nitrocellulose membranes have been cut, washed with water and blotted on the paper filters. The peptides at 250 mM concentration have been transferred on membrane. Labelled membrane has been washed for 10 min. with TBST buffer (10 mM Tris-HCl pH 7.4, 150 mM NaCl, 0.05% (v/v) Tween-20) and then blocked for 45 min with TBST/5% milk. Then the membranes have been incubated for 6 hours at 4° C. in shaker with 1 mg of total protein extract or 20 μg of GST fusion purified proteins. Successively the membranes have been washed with TBST buffer and decorated with anti-p53 antibody (DO1) as a primary antibody. As secondary antibody horse peroxidase conjugated goat antibody has been used. Immunolabelled lanes have been detected using chemiluminescence analysis (Pierce).
(§3) The membranes decorated with SIMP peptides also have been incubated with GST-p53 His175, GST p53His74-298, GST WTp53 fusion proteins, GST control.

mutp53 His-273 protein = target: T1, mutp53 His-273 protein (Homo sapiens, UniProt P04637, R273H); experiment: Dot immunobinding test with total cell extracts; type: binding; conditions: total extracts 1 mg, peptide on nitrocellulose membrane
T1 construct: Total extracts deriving from SKBR3, (His-175) HT29, (His-273) and H1299 (p53 free) tumour cells; endogenous in cells; host or cells: HT29 total cell extract
Method: as §1, §2, §3

[2] = tested on: MDA-MB468 breast and HT29 colon carcinoma cell lines; experiment: Cell viability / proliferation assays after peptide transfection; type: cell-based, human; conditions: peptide transfected cells
Method: (§4) (A) In order to verify the SIMPI peptide specificity, independently from the cellular context, we tested SIMP1 peptides in some Adriamicyn treated colon carcinoma HT29 (His-273). cell lines. The cells have been transfected using a mixture containing lipofectamine, pLUC-BAX plasmid, β-galactosidase expression vector, SIMP1 and SIMP5M control peptides. 24 hours post-transfection, have been treated with 3 μM Adriamicyn. (B-C). Viability and inhibition assays have been carried out after transfection using SIMP1 and SIMP5M peptides in HT29 (colon cancer) and MDA-MB-468 (breast cancer) cell lines
Cell viability has been tested using Trypan Blue exclusion assays.
We observed a reduction of cell proliferation in MDA-MB468 breast and HT29 colon carcinoma cell lines.

[3] = tested on: HT29 (His-273) colon carcinoma cells; experiment: Transactivation test (pLUC-BAX) in Adriamycin treated HT29 cells; type: cell-based, human; conditions: 3 μM Adriamycin
Method: as §4
SKBR3, HT-29, MDA-MB-468 cell lines have been transfected with Lipofectamine 2000 according to the supplier instructions (InVitrogen).
Cells (1.5×10^5) have been transiently transfected using SIMP peptides, expression plasmids and reporter constructs as internal controls for transfection efficiency. After the transfection, SKBR3, HT-29 and MDA-MB-468 have been incubated with 3 μM ADR over 24 hours. Cells have been washed with cold PBS and re-suspended in lysis buffer (Promega) and incubated for 10 min at room temp. Insoluble material has been centrifuged and luciferase activity has been determined using a commercial kit with a luminometer (Turner).

FQQSSTAKSATW (p73 SIMP (aa 131-142)) [SIMP1]
specificity for p53 mutation type [1]: display specificity for His-273 mutation containing tumours
reaction with GST-p53 fusion proteins (dot blot, anti-p53 DO1) (GST-p53 His175): no reaction was observed
direct binding to mutp53 His-273 (dot blot, anti-p53 DO1) (mutp53 His-273 protein): binds directly the mutp53 His-273 protein
cell proliferation in vitro [2]: reduce the cell proliferation in vitro
sensitivity to Adriamycin [3]: made the same more sensitive to the treatment with Adriamycin
